The values that follow are results of earlier work, collected in patent US12168056B2, “Scintillator nanocrystal-containing compositions and methods for their use” (The Regents of the University of California, priority 2013, dated 2024).

SMILES strings stand for the structures.

The series concerns human glioblastoma (GBM) cells.

Take `COc1cccc2c1C(=O)c1c(O)c3c(c(O)c1C2=O)C[C@@](O)(C(=O)CO)C[C@@H]3O[C@H]1C[C@H](N)[C@H](O)[C@H](C)O1` [Dox, doxorubicin]: the “suppression of GBM cells in culture” value is “potently suppresses”.
